Assay results published in paper PMC9369162, “Substrates of the Human Brain Proton-Organic Cation Antiporter and Comparison with Organic Cation Transporter 1 Activities” (International Journal of Molecular Sciences, 2022).

Molecular target: T1, OCT1 (Homo sapiens, UniProt O15245)
T1 construct: expressed in transfected cells; host or cells: HEK293
T1 sequence (O15245 1-554): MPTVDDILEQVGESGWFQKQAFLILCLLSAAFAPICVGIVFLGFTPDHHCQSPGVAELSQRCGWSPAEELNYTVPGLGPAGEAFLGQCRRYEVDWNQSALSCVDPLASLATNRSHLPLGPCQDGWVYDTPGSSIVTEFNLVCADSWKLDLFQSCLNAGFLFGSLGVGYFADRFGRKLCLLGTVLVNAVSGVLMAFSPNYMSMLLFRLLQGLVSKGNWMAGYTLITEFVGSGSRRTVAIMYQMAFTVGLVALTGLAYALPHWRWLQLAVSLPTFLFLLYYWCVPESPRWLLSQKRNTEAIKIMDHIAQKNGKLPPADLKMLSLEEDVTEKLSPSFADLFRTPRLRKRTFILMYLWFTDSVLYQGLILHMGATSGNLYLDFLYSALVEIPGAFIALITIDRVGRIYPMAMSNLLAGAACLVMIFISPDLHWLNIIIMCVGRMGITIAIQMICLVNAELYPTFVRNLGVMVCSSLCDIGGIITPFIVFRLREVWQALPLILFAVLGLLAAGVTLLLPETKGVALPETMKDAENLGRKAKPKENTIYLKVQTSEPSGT
Assay: not given
Set-up: method as in PMID 34093211
Details: cited from earlier work

Q: With `CN(C)CCC=C1c2ccccc2CCc2ccccc21` [Amitriptyline] as the molecule, how does the OCT1 substrate status read?
A: not OCT1 substrates

Molecular target: T1, OCT1
Assay: Cell uptake in OCT1 overexpressing HEK293 cells over empty-vector transfected cells
Assay type: cell-based
Details: not given

Q: With `N[C@@H]1C[C@H]1c1ccccc1` (racemic) [Tranylcypromine] as the molecule, how does the “OCT1 Ratio” value read?
A: 1.60

Q: Which “OCT1 Ratio” value does the source give for `Nc1nc2c(ncn2COCCO)c(=O)[nH]1` [Acyclovir] here?
A: 2.00

Q: For `CC(C)(C)NCC(O)c1cc(Cl)c(N)c(Cl)c1` (centres unmarked) [Clenbuterol], which “OCT1 Ratio” value is on record?
A: 1.10

Q: Which “OCT1 Ratio” value does the source give for `COc1cccc2c1C(=O)c1c(O)c3c(c(O)c1C2=O)C[C@@](O)(C(C)=O)C[C@@H]3O[C@H]1C[C@H](N)[C@H](O)[C@H](C)O1` [Daunorubicin] here?
A: 1.10

Q: For `CN(C)CC(c1ccc(O)cc1)C1(O)CCCCC1` (centres unmarked) [Desmethylvenlafaxine], which “OCT1 Ratio” value is on record?
A: 3.30

Q: For `COc1ccc2c3c1O[C@H]1[C@@H](O)CC[C@H]4[C@@H](C2)N(C)CC[C@@]341` [Dihydrocodeine], which “OCT1 Ratio” value is on record?
A: 0.80

Q: Which “OCT1 Ratio” value does the source give for `CNCC[C@H](Oc1cccc2ccccc12)c1cccs1` [Duloxetine] here?
A: 1.20

Q: With `CN[C@@H](C)[C@H](O)c1ccccc1` [Ephedrine] as the molecule, how does the “OCT1 Ratio” value read?
A: 1.50

Q: For `CCOC(=O)c1cncn1[C@H](C)c1ccccc1` [Etomidate], which “OCT1 Ratio” value is on record?
A: 0.94

Q: For `COc1ccc2c3c1O[C@H]1C(=O)CC[C@H]4[C@@H](C2)N(C)CC[C@]314` [Hydrocodone], which “OCT1 Ratio” value is on record?
A: 1.20

Q: With `CNC1(c2ccccc2Cl)CCCCC1=O` (centres unmarked) [Ketamine] as the molecule, how does the “OCT1 Ratio” value read?
A: 1.10

Q: For `CCC1(c2cccc(O)c2)CCCCN(C)C1` (centres unmarked) [Meptazinol], which “OCT1 Ratio” value is on record?
A: 3.20

Q: For `COC(=O)C(c1ccccc1)C1CCCCN1` (centres unmarked) [Methylphenidate], which “OCT1 Ratio” value is on record?
A: 1.90

Q: Which “OCT1 Ratio” value does the source give for `CCN(CC)CCNC(=O)c1cc(Cl)c(N)cc1OC` [Metoclopramide] here?
A: 1.80

Q: Which “OCT1 Ratio” value does the source give for `CNCC1CCCCC1(O)c1cccc(OC)c1` (centres unmarked) [N-Desmethyltramadol] here?
A: 2.40

Q: Which “OCT1 Ratio” value does the source give for `CCOC(=O)[C@]1(c2ccccc2)CCC=C[C@H]1NC` [Nortilidine] here?
A: 1.62

Q: For `COc1ccc2c3c1O[C@H]1C(=O)CC[C@@]4(O)[C@@H](C2)N(C)CC[C@]314` [Oxycodone], which “OCT1 Ratio” value is on record?
A: 0.90

Q: For `Fc1ccc([C@@H]2CCNC[C@H]2COc2ccc3c(c2)OCO3)cc1` [Paroxetin], which “OCT1 Ratio” value is on record?
A: 1.17

Q: Which “OCT1 Ratio” value does the source give for `CC(C)(C)NCC(O)c1ccc(O)c(CO)n1` (centres unmarked) [Pirbuterol] here?
A: 80.90

Q: For `N#CC(CCN1CCC(C(N)=O)(N2CCCCC2)CC1)(c1ccccc1)c1ccccc1` [Piritramide], which “OCT1 Ratio” value is on record?
A: 1.18

Q: With `CNC(=C[N+](=O)[O-])NCCSCc1ccc(CN(C)C)o1` [Ranitidin] as the molecule, how does the “OCT1 Ratio” value read?
A: 18.10

Q: Which “OCT1 Ratio” value does the source give for `CN1[C@@H]2C[C@@H](OC(=O)[C@H](CO)c3ccccc3)C[C@H]1[C@@H]1O[C@@H]12` [Scopolamin] here?
A: 1.10

Q: With `Cn1c(=O)c2[nH]cnc2n(C)c1=O` [Theophyllin] as the molecule, how does the “OCT1 Ratio” value read?
A: 1.00

Q: With `CCOC(=O)C1(c2ccccc2)CCC=CC1N(C)C` (centres unmarked) [Tilidine] as the molecule, how does the “OCT1 Ratio” value read?
A: 1.30

Same assay, conditions: cell uptake in OCT1 overexpressing cells over uptake in mock transfected cells

Q: Which “OCT1 Ratio” value does the source give for `CCCC(=O)Nc1ccc(OCC(O)CNC(C)C)c(C(C)=O)c1` (centres unmarked) [Acebutolol] here?
A: 5.20

Q: Which “OCT1 Ratio” value does the source give for `CN(C)CCC=C1c2ccccc2CCc2ccccc21` [Amitriptyline] here?
A: 1.20

Q: For `C[N+](C)(C)CC(=O)O` [Betaine], which “OCT1 Ratio” value is on record?
A: 1.00

Q: Which “OCT1 Ratio” value does the source give for `CC(C)NCC(O)COc1ccc(COCCOC(C)C)cc1` (centres unmarked) [Bisoprolol] here?
A: 1.00

Q: Which “OCT1 Ratio” value does the source give for `COc1cc(OC)c(C(=O)CCCN2CCCC2)c(OC)c1` [Buflomedil] here?
A: 1.00

Q: With `C[N+](C)(C)CCO` [Choline] as the molecule, how does the “OCT1 Ratio” value read?
A: 1.50

Q: For `CC(CCc1ccc(O)cc1)NCCc1ccc(O)c(O)c1` (centres unmarked) [Dobutamine], which “OCT1 Ratio” value is on record?
A: 14.70

Q: With `CN(C)CCC=C1c2ccccc2COc2ccccc21` [Doxepin] as the molecule, how does the “OCT1 Ratio” value read?
A: 1.30

Q: With `CN1CCC[C@@H]1Cc1c[nH]c2ccc(CCS(=O)(=O)c3ccccc3)cc12` [Eletriptan] as the molecule, how does the “OCT1 Ratio” value read?
A: 1.20

Q: With `CN[C@@H]1CCc2[nH]c3ccc(C(N)=O)cc3c2C1` [Frovatriptan] as the molecule, how does the “OCT1 Ratio” value read?
A: 33.10

Q: For `NNC(=O)c1ccncc1` [Isoniazid], which “OCT1 Ratio” value is on record?
A: 0.94

Q: Which “OCT1 Ratio” value does the source give for `CC[C@@H](C(N)=O)N1CCCC1=O` [Levetiracetam] here?
A: 1.00

Q: For `CC12CC3CC(C)(C1)CC(N)(C3)C2` [Memantine], which “OCT1 Ratio” value is on record?
A: 1.10

Q: With `C[C@@H](O)[C@H]1C(=O)N2C(C(=O)O)=C(S[C@@H]3CN[C@H](C(=O)N(C)C)C3)[C@H](C)[C@H]12` [Meropenem] as the molecule, how does the “OCT1 Ratio” value read?
A: 1.10

Q: For `Cc1nccn1CC1CCc2c(c3ccccc3n2C)C1=O` (centres unmarked) [Ondansetron], which “OCT1 Ratio” value is on record?
A: 1.00

Q: With `Cn1c(=O)[nH]c2ncn(C)c2c1=O` [Paraxanthine] as the molecule, how does the “OCT1 Ratio” value read?
A: 1.00

Q: For `CNC[C@H](O)c1cccc(O)c1` [Phenylephrine], which “OCT1 Ratio” value is on record?
A: 10.60

Q: Which “OCT1 Ratio” value does the source give for `CC(C)NCC(O)COc1cccc2[nH]ccc12` (centres unmarked) [Pindolol] here?
A: 1.20

Q: Which “OCT1 Ratio” value does the source give for `CC(C)NCC(O)COc1cccc2ccccc12` (centres unmarked) [Propranolol] here?
A: 1.10

Q: For `NC(=O)c1cnccn1` [Pyrazinamide], which “OCT1 Ratio” value is on record?
A: 0.80

Q: Which “OCT1 Ratio” value does the source give for `Cc1ncc(C[n+]2csc(CCO)c2C)c(N)n1` [Thiamine] here?
A: 11.60

Q: With `COc1cc(Cc2cnc(N)nc2N)cc(OC)c1OC` [Trimethoprim] as the molecule, how does the “OCT1 Ratio” value read?
A: 1.90

Q: Which “OCT1 Ratio” value does the source give for `COc1ccccc1N1CCN(CCCNc2cc(=O)n(C)c(=O)n2C)CC1` [Urapidil] here?
A: 1.10

Q: Which “OCT1 Ratio” value does the source give for `CN(C)CCc1c[nH]c2ccc(C[C@H]3COC(=O)N3)cc12` [Zolmitriptan] here?
A: 10.00

Tested on: not given
Assay: not given
Set-up: method as in PMID 19243716
Details: published studies; cited from earlier work

Q: For `c1cnc2cc3c(cc2n1)[C@@H]1CNC[C@H]3C1` [varenicline], which “variation of blood concentrations” value is on record?
A: more than 100 fold
